Like-named read-outs stand apart in the source and are kept apart here. Blank lines part the entries; values can stand above or below the molecule they belong to.
Legend:
GST-Grp1 = target: T1, GST-Grp1 (Homo sapiens, UniProt O43739); experiment: Competition fluorogenic assay with GST-Grp1/GS-QSY 7 complex; assay type: binding; settings: probe 10 nM, GST-Grp1 0.5 μM, GS-QSY 7 2.5 μM, increasing competitor
T1 sequence (O43739 1-400): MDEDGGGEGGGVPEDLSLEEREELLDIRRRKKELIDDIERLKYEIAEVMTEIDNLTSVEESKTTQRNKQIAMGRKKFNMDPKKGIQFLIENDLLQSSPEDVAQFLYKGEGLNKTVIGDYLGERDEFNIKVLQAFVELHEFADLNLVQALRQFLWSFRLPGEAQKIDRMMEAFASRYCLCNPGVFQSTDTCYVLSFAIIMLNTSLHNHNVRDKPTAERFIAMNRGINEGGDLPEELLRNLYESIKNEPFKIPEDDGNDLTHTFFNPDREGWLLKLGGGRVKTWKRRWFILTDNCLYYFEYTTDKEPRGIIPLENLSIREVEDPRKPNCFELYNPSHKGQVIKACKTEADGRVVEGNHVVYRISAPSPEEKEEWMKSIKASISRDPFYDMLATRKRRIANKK
Description: The fluorogenic assays using a glutathione quencher conjugate (e.g. GS-QSY 7) were set up in a black 384-well plate. A combination of the assay components described in detail below, including GST-Grp1, BODIPY®-FL-PI(3,4,5)P3, GS-QSY7, and phosphoinositide competitors, were incubated in the dark for 1 hour. The total reaction volume was either 25 or 50 μl in PBS (pH 7.4). The plate was then transferred to an Alpha Fusion plate reader and read with a 485/520 nm filter.
This fluorogenic assay was also specific.

GST-TAPP1 = GST-TAPP1 (Homo sapiens, UniProt Q9HB21); experiment: Competitive FP assay, displacement of BODIPY-TMR-PI(3,4)P2 tracer from GST-TAPP1; assay type: binding
Sequence of GST-TAPP1 (Q9HB21 whole entry): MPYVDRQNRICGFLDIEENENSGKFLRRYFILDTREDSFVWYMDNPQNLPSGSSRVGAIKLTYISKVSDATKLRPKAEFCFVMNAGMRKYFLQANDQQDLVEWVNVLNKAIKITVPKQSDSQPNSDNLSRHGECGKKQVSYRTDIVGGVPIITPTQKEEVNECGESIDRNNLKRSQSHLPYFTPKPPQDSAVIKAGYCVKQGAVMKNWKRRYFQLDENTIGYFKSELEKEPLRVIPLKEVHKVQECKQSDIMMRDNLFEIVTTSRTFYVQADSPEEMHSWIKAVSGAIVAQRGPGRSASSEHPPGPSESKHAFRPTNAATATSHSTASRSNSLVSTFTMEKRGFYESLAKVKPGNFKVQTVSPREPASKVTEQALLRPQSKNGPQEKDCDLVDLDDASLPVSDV
Description: (§1) In order to use these reagents in a competitive FP assay, unlabeled phosphoinositide products of an enzymatic reaction must be able to successfully compete with the labeled tracer for interaction with the binding proteins. In addition, the level of cross-reactivity of binding proteins with the phosphoinositides used as enzyme substrates should be minimal. To examine the suitability of these phosphoinositide binding proteins for this application, competition assays were performed using optimal amounts of lipid binding proteins and fluorescent tracers, mixed with increasing amounts of diC8-phosphoinositide competitors.
Similar competition assays were performed to examine the selectivity and sensitivity of PI(3,4)P2 detection by GST-TAPP1 (FIG. 10). In these assays, the concentrations of GST-TAPP1 and the fluorescently labeled phosphoinositide were held constant as the concentration of unlabeled lipid competitor was increased. […] In implementing these assays, the initial amount of PI(3,4,5)P3 substrate should be kept low enough to minimize competition.

GST-GRP1-PH = target: T2, GST-GRP1-PH (Homo sapiens, UniProt O43739); experiment: Competitive FP assay, displacement of fluorescent tracer from GST-GRP1-PH; assay type: binding; settings: displacement of BODIPY®-TMR-I(1,3,4,5)P4 tracer
T2 construct: The PH domain of GRP1 (general receptor for phosphoinositides) was used as a detector for PI(3,4,5)P3
T2 sequence (O43739 264-381 limits assumed): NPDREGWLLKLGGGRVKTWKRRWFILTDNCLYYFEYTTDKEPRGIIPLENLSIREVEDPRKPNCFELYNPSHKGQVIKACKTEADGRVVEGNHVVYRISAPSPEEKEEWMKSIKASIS
Description: as §1
The sensitivity of this approach for detecting conversion of PI(4,5)P2 to PI(3,4,5)P3 was evaluated using GST-GRP1-PH protein and FAM and BODIPY®-TMR labeled tracers. Competition assays in which both diC8-PI(3,4,5)P3 and diC8-PI(4,5)P2 were added at increasing concentrations were performed.

SMQ-Grp1 = target: T3, SMQ-Grp1 (Homo sapiens, UniProt O43739); experiment: Competitive dequenching fluorogenic assay with SMQ-Grp1; assay type: binding; settings: for change of fluorescence signal (competition): increasing amounts of competitor, compared with diC8 PI(3,4,5)P3
T3 construct: small molecular quencher (Dabcyl, QSY 7 or QSY 9); made in house
T3 sequence (O43739 1-400): T1 sequence (O43739 1-400)
Description: The fluorogenic assays were set up in a black 384-well plate. The combination of 100 nM, 10 nM and 1 nM of SMQ-Grp1 conjugate was incubated with 100 nM, 50 nM and 25 nM BODIPY®-FL-labeled PI(3,4,5)P3. The total assay volume was […] in a PBS buffer at a pH of 7.5. The assay mixture was incubated in the dark for one hour at 25° C. The plate was then transferred to an Alpha Fusion plate reader and read with a 485/520 nm filter. […] For example, if BODIPY®-FL-PI(3,4,5)P3 is fixed at 25 nM, increasing the amount of Dabcyl-Grp1 conjugate (from 1 nM to 100 nM) caused decreasing amounts of fluorescence (FIG. 24). Similar fluorescence quenching profiles were shown for QSY 7-Grp1 and QSY 9-Grp1.
The quenching effects of BODIPY®-FL-PI(3,4,5)P3 by SMQ-Grp1 were specific. diC8 PI(3,4,5)P3 as a competitor antagonized the fluorescence quenching effect of BODIPY®-FL-PI(3,4,5)P3 by SMQ-Grp1 in a dose-response manner. diC8 PI(3,4,5)P3 was used at varying concentrations to compete with BODIPY®-FL-PI(3,4,5)P3 for binding to the SMQ-Grp1 conjugate. […] In each bar graph in FIG. 25, from the right to the left, the bars show the fluorescence reading of PBS as the background, the diC8 PI(3,4,5)P3 only, the SMQ-Grp1 conjugate only, BODIPY®-FL-PI(3,4,5)P3 only, Grp1-SMQ plus BODIPY®-FL-PI(3,4,5)P3, Grp1-SMQ plus BODIPY®-FL-PI(3,4,5)P3 with 10 pmol of diC8 PI(3,4,5)P3 as the competitor, Grp1-SMQ plus BODIPY®-FL-PI(3,4,5)P3 with 100 pmol of diC8 PI(3,4,5)P3 as the competitor, Grp1-SMQ plus BODIPY®-FL-PI(3,4,5)P3 with 1000 pmol of diC8 PI(3,4,5)P3 as the competitor, and Grp1-SMQ plus BODIPY®-FL-PI(3,4,5)P3 with 10000 pmol of diC8 PI(3,4,5)P3 as competitor. […]
Fluorogenic assays were also used to compare competition of diC8 PI(3,4,5)P3 to PI(4,5)P2 and PI(3)P. With increasing amounts of PI(3,4,5)P3 the signal begins to increase, indicating competition, whereas as PI(4,5)P2 and PI(3)P show little change, indicating less competition. […] The production (or presence) of PI(3,4,5)P3 in this assay system corresponds to the elevation of the fluorescence signal.

[1] = tested on: PI(4,5)P2-specific LRP derived from PLCδ; experiment: AlphaScreen binding and competition with PI(4,5)P2-specific LRP; settings: biotinylated PI(4,5)P2 and PLCδ kept constant
Description: The present invention provides ALPHAScreen™ assays to detect specific binding and competition of phosphoinositide diphosphates using antibodies or LRPs. This approach can be used in competitive assays for the detection of PI(3,4)P2 and PI(4,5)P2 produced by lipid phosphatase or kinase activity. […] Increasing amounts of unlabeled PI(4,5)P2 or PI(3,4,5)P3 were added while levels of PLCδ and PI(4,5)P2 were kept constant. PI(4,5)P2 competition is approximately 90-fold greater than PI(3,4,5)P3 competition, indicating a high degree of specificity for recognition of PI(4,5)P2.

[2] = Fluorogenic assay, quenching of BODIPY-FL-PI(3,4,5)P3 by SMQ-Grp1 conjugates; assay type: binding
Description: The chemical modification of LRPs, e.g. Grp1, a PI(3,4,5)P3 binder, with small molecular quenchers (SMQ) has been thoroughly studied in this invention. Three SMQs, Dabcyl-SE (4-((4-(dimethylamino)phenyl)azo)benzoic acid, succinimidyl ester), QSY 7-SE (9-[2-[[4-[[(2,5-dioxo-1-pyrrolidinyl)oxy]carbonyl]-1-piperidinyl]sulfonyl]phenyl]-3,6-bis(methylphenylamino)-, chloride) and QSY 9-SE (QSY® 9 carboxylic acid, succinimidyl ester, C43H39ClN4O13S3), with diverse structures, spectral properties, hydrophobicity and solubility properties, were coupled to Grp1. Specifically, SMQ-modified Grp1 still retains its binding activity and quenches the fluorescence of BODIPY®-FL labeled PI(3,4,5)P3. With a fixed amount of BODIPY®-FL-PI(3,4,5)P3 in solution, increasing the amount of SMQ-Grp1 caused decreasing fluorescence of the PI(3,4,5)P3 fluorescent probes. At a ratio of 2:1 (QSY 7-Grp1:BODIPY®-FL-PI(3,4,5)P3), QSY 7-Grp1 quenched up to 70% of the fluorescence intensity of BODIPY®-FL PI(3,4,5)P3.
The fluorogenic assays were set up in a black 384-well plate. […] The plate was then transferred to an Alpha Fusion plate reader and read with a 485/520 nm filter. […] For example, if BODIPY®-FL-PI(3,4,5)P3 is fixed at 25 nM, increasing the amount of Dabcyl-Grp1 conjugate (from 1 nM to 100 nM) caused decreasing amounts of fluorescence (FIG. 24). […]

- effect on fluorescence of BODIPY®-FL PI(3,4,5)P3 (competition) (GST-Grp1): restored the fluorescence
Molecule: CCCCCCCCCCCCCCCC(=O)OC[C@H](COP(=O)(O)OC1[C@H](O)[C@H](OP(=O)(O)O)C(OP(=O)(O)O)[C@H](OP(=O)(O)O)[C@H]1O)OC(=O)CCCCCCCCCCCCCCC (some centres unmarked) [DiC16 PI(3,4,5)P3]

- IC50 (GST-TAPP1; read-out: IC50): 165 nM
Molecule: CCCCCCCC(=O)OC[C@H](COP(=O)(O)O[C@H]1[C@H](O)[C@@H](O)[C@H](OP(=O)(O)O)[C@@H](OP(=O)(O)O)[C@H]1O)OC(=O)CCCCCCC [diC8-PI(3,4)P2]

- IC50 (GST-GRP1-PH): 218 nM
- IC50 (GST-TAPP1; predicted, read-out: predicted IC50): 1510 nM
- fluorescence restored, of the original (SMQ-Grp1; 10000 pmol competitor, Dabcyl-Grp1 100 nM, probe 50 nM): up to 70%
Molecule: CCCCCCCC(=O)OC[C@H](COP(=O)(O)OC1[C@H](O)[C@H](OP(=O)(O)O)C(OP(=O)(O)O)[C@H](OP(=O)(O)O)[C@H]1O)OC(=O)CCCCCCC (some centres unmarked) [diC8-PI(3,4,5)P3]

Molecule: CCCCCCCCCCCCCCCC(=O)OC[C@H](COP(=O)(O)O[C@@H]1[C@H](O)[C@H](O)[C@@H](OP(=O)(O)O)[C@H](OP(=O)(O)O)[C@H]1O)OC(=O)CCCCCCCCCCCCCCC [diC16 PI(4,5)P2]
- effect on fluorescence of BODIPY®-FL PI(3,4,5)P3 (competition) (GST-Grp1): only marginally increased the fluorescence at higher concentrations

- change of fluorescence signal (competition) (SMQ-Grp1): little change
Molecule: PI(3)P

- competition relative to PI(3,4,5)P3 competition [1]: approximately 90 fold
- change of fluorescence signal (competition) (SMQ-Grp1): little change
Molecule: PI(4,5)P2

B1: QSY 7-Grp1: Grp1, a PI(3,4,5)P3 binder, coupled to small molecular quencher QSY 7-SE (conjugate, UniProt O43739 1-400, looked up)
Cytohesin-3: T1 sequence (O43739 1-400)
modifications: QSY 7 quencher
- quenching of fluorescence intensity of BODIPY®-FL PI(3,4,5)P3 ([2]; ratio 2:1 (QSY 7-Grp1:BODIPY®-FL-PI(3,4,5)P3)): up to 70%

B2: Dabcyl-Grp1 conjugate: Grp1, a PI(3,4,5)P3 binder, coupled to small molecular quencher Dabcyl-SE (conjugate, UniProt O43739 1-400, looked up)
Cytohesin-3: T1 sequence (O43739 1-400)
modifications: Dabcyl quencher
- quenching of fluorescence of BODIPY®-FL-PI(3,4,5)P3 ([2]; SMQ-Grp1 100 nM, BODIPY®-FL-PI(3,4,5)P3 50 nM): ~70%

Reference: US20050009124A1, “Assays for detection of phosphoinositide kinase and phosphatase activity” (Echelon Biosciences Incorporated, priority 2001, published 2005)
